Data reported in patent publication US20230285498A1, “TREATMENTS FOR CANCERS HAVING KRAS MUTATIONS” (City of Hope, priority 2020, published 2023).
pIC50: −log10 of the molar value.

Experiments:
[1] = tested on: SW1573; experiment: Cell proliferation assay, 2D (IncuCyte live cell imaging); format: cell-based; settings: for pIC50 / inhibition of cell growth at last time point: SW1573; for inhibition of cell growth at last time point: 96 hours
Method: The cells were seeded at density of 10000 cells/well 12 hours prior to the experiment. Once the cells attached to the plate the media was removed and the drugs were added to the cells. […] Cell proliferation was observed using the IncuCyte Live Imaging System for 72 hrs.
Knockdown of ITGB4 (Cat #SR302473C) at the mRNA level in the SW1573 cells was done using siRNAs purchased from OriGene Technologies (Rockville, Md., USA). JetPRIME transfection reagent (Polyplus Transfection, Illkirch, France) was used to transfect the siRNAs according to the manufacturer's protocol. Cells were seeded in 6-well plates (200,000 cells/well) and allowed to adhere overnight. Next day, 10 nM siRNA was transfected with 4 μl jetPRIME reagent in complete growth medium for each well. Next day cells were trypsinized, counted and re-plated on the 96 well plate for cell proliferation and drug assay. […] Cell growth medium was changed the next day and expression was detected 72 h post-transfection by immunoblotting.
The cells grown in 2D cultures were treated with various concentrations of the drug, and the effect on cell proliferation was determined in real time using the live cell proliferation assay (IncuCyte, Essen Bioscience, Inc.) as described in the methods.
Cell proliferation and apoptosis assay: Cell proliferation assays were performed using cell lines stably transfected with NucLight Red Lentivirus (Essen BioScience) to accurately visualize and count the nucleus of a single cell. Cells were seeded on a 96-well plate and allowed to adhere for 24 h. Test compounds were added at indicated concentrations. Caspase-3/7 Green Apoptosis Reagent (Essen BioScience) was also added as a green fluorescent indicator of caspase3/7-mediated apoptotic activity. To monitor cell proliferation and apoptosis over time, the plate was placed in the IncuCyte S3 Live Cell Imaging System (Essen BioScience) and images were acquired every 2 hours. Data analysis was generated by the IncuCyte software using a red fluorescence mask to accurately count each cell nucleus and a green fluorescence mask to measure apoptosis over time. 3D spheroid assay 3D spheroid experiments were performed using cell lines stably transfected with NucLight Red Lentivirus (Essen BioScience) to visualize red fluorescence as an indicator of cell viability. Cells were seeded on a 96-well ultra-low attachment plate and allowed to form spheroids overnight. Drug treatment was added as indicated along with Cytotox Green Reagent (Essen BioScience), used as a green fluorescence indicator of cell death due to loss of cell membrane integrity. To monitor cell proliferation and apoptosis over time, the plate was placed in the IncuCyte S3 Live Cell Imaging System (Essen BioScience) and images were acquired every 2 hours. Data analysis was generated by the IncuCyte software using a red fluorescence mask to accurately measure intensity and area of red fluorescence, indicating spheroid viability and a green fluorescence mask, indicating cell death. Cell cycle analysis.

[2] = tested on: SW1573 cells; experiment: Cell cycle analysis (FACS); format: cell-based; settings: 20 μM, 72 hours
Excerpt: Using commercially available lentiviral particles (Essen Bioscience Inc.), a SW1573 stable cell line was developed to determine the dynamics of the cell cycle in response to the KRAS inhibitors. In the G1 phase, these cells express the red fluorescent protein and in G2, they express the green fluorescent protein, and cells transitioning from G1 to […], express both the proteins giving rise to yellow florescence.
Cell cycle analysis. […] The stable cell line was generated using the puromycin selection media. Yellow cells are indicative of cell cycle transition from G1 to S while non-fluorescent cells are moving from M to G1.

[3] = tested on: H23 sotorasib (20 μM)-resistant cells; experiment: Cell proliferation, isogenic sotorasib resistant line; format: cell-based; settings: ITGB4/β-catenin double knockdown together with sotorasib; 96 hours
Excerpt: Next, it was sought to determine cell proliferation changes with the combination treatment.

[4] = tested on: ITGB4-overexpressing H23 cells; experiment: Cell proliferation, ITGB4-overexpressing cells; format: cell-based; settings: Homo sapiens, NCI-H23
[5] = tested on: SW1573 cells; experiment: Zebrafish larvae SW1573 xenotransplant; format: in vivo
Method: The inventors microinjected SW1573 cells into the perivitelline space of 48 hour post-fertilization (hpf) zebrafish larvae.

[6] = tested on: SW1573; experiment: Drug combination synergy assay (inhibition matrix); format: cell-based; settings: Homo sapiens, read-out: inhibition of cell growth
Method: The synergy finder codes were used to determine the synergy between drugs for 48 possible combinations. The codes were run using the R-platform and synergy was calculated and represented as the synergy landscape.
Drug Combination Synergy Assay: For combination index (CI) calculation, SW1573 and H23 incured cell lines were seeded in 96-well plate with 5000 cells per well. Three biological replicates (three 96-well plates for each drug combination) were used. […] The drugs were used in linear dilution series with dilution factor of 2. […] Further, R package called SynergyFinder (He et al., 2018) was used to find the nature of drug-drug interaction (i.e. if they work in synergy or antagonistically or non-interactively). For this purpose, the drug response matrix is supplied to the mentioned package, which then uses several models namely Highest Single Agent (Berenbaum, 1989), Loewe additivity (Loewe, 1953), Bliss independence (Bliss, 1939) and Zero Interaction Potency (Yadav et al., 2015) to quantify the degree of drug synergy. The dose response matrix was used to calculate individual CI values for IC30, IC50 and IC70 drug treatments. The output values were used to plot isobolograms using the following formula. CI=IC50 (A) pair IC50 (A)+IC50 (B) pair IC50 (B)

C=CC(=O)N1CCN(c2nc(=O)n(-c3c(C)ccnc3C(C)C)c3nc(-c4c(O)cccc4F)c(F)cc23)[C@@H](C)C1 [sotorasib]
inhibition at 10 µM ([1]; Homo sapiens, SW1573, 72 h, read-out: inhibition of proliferation / cell growth): ~50% | pIC50 ([1]; Homo sapiens, 72 hours, Example 6): 5.02 | pIC50 ([1]; Homo sapiens, Example 1, FIG. 14C-14D): 5.10 | inhibition of cell growth at last time point ([1]; ITGB4/β-catenin double knockdown plus sotorasib): about 70% | inhibition of cell growth at last time point ([1]; sotorasib at IC50 concentration only): about 40% | G2 population ([2]; from 26%): 11% | G1 population ([2]; from about 39%): 62% | sensitization of isogenic resistant line [3]: 70% | inhibition at 10 µM [4]: 5% | most effective dose, drug alone (obliterates SW1573 cells) [5]: 12 µM | toxic dose, drug alone [5]: 18 µM | inhibition at 16 µM [6]: ~10%
